IC50 data for 3 molecules are collected here from patent US20240246967A1, “AXL COMPOUNDS” (ARCUS BIOSCIENCES, INC., priority 2021, published 2024).

A word on the IC50: it is the concentration that gives 50% inhibition.

The target in test [1] is T1, Axl (Homo sapiens, UniProt P30530).
T1 sequence (P30530 26-894): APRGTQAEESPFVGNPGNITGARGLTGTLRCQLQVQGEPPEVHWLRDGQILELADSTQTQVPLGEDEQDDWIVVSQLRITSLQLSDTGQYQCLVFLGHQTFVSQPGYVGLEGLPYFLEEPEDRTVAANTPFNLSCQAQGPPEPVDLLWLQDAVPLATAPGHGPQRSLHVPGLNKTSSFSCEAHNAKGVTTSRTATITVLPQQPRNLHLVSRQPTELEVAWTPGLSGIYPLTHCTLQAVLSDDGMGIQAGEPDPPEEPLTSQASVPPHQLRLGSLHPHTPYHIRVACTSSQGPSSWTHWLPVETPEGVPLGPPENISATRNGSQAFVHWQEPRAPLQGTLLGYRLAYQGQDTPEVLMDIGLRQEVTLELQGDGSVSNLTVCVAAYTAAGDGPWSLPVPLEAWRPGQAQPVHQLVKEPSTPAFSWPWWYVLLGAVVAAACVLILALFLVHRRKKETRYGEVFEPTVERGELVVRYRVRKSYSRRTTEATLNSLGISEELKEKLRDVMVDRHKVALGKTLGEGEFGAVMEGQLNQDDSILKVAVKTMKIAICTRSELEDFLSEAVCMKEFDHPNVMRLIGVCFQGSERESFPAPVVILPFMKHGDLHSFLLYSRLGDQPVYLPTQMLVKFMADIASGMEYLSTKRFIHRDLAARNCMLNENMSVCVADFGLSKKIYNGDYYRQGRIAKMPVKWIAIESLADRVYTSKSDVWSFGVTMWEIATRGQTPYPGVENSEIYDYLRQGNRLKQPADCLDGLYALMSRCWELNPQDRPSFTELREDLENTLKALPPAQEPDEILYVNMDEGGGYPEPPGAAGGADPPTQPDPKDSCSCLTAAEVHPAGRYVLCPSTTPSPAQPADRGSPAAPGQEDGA
As to the kind of experiment: HTRF KinEASE-TK biochemical potency assay, AXL. Details: purchased Invitrogen. To be noted: 5 nM AXL, 700 μM ATP, 800 nM TK Substrate-biotin. Put shortly: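 Recombinant human kinase preincubated 1 h at RT with compound, then reacted 2 h at RT with 800 nM biotin-TK substrate and 700 μM ATP (final; 5 nM AXL, 1 nM TYRO3 or MER) in HEPES pH 7.4, MgCl2, BSA, DTT, 1% DMSO. HTRF 665/620 ratio read; percent activity versus DMSO and pre-quenched controls.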

Test [2] deals with T1, Axl. As to the kind of experiment: Axl NanoBRET intracellular kinase assay (intracellular binding, Cell Binding). Details: host or cells: HEK-293. Particulars: HEK-293 cells transfected with Axl-NanoLuc fusion vector; 0.35 μM K-5 NanoBRET tracer. In outline: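 Intracellular binding measured as loss of BRET (610 nm/450 nm) when compounds displace 0.35 μM K-5 tracer from Axl-NanoLuc in transfected HEK-293 cells.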

With `CN(C)C(=O)c1ccc(-c2n[nH]c3ncc(-c4ccc5c(c4)CC[C@@H](N4C6COCC4C6)CC5)cc23)cc1` [Example 125, N,N-Dimethyl-4-{5-[(7S)-7-{3-oxa-6-azabicyclo[3.1.1]heptan-6-yl}-6,7,8,9-tetrahydro-5H-benzo[7]annulen-2-yl]-2H-pyrazolo[3,4-b]pyridin-3-yl}benzamide], the IC50 at Axl [1] and at Axl [2] was below 0.1 µM in each case.
For the molecule `c1cc2c(cc1-c1cnc3[nH]nc(-c4ccc(N5C[C@H]6C[C@@H]5CO6)cc4)c3c1)CC[C@@H](N1C3COCC1C3)CC2` [Example 126, (1R,4R)-5-(4-{5-[(7S)-7-{3-oxa-6-azabicyclo[3.1.1]heptan-6-yl}-6,7,8,9-tetrahydro-5H-benzo[7]annulen-2-yl]-2H-pyrazolo[3,4-b]pyridin-3-yl}phenyl)-2-oxa-5-azabicyclo[2.2.1]heptane], the values for the concentration for half-maximal inhibition (IC50) against Axl [1] and at Axl [2] were below 0.1 µM and 0.1 to 1 µM, respectively.
Turning to `FC1CN(c2ccc(-c3c[nH]c4ncc(-c5ccc6c(c5)CC[C@@H](N5C7COCC5C7)CC6)cc34)cc2)C1` [Example 127, 6-[(7S)-2-{3-[4-(3-fluoroazetidin-1-yl)phenyl]-1H-pyrrolo[2,3-b]pyridin-5-yl}-6,7,8,9-tetrahydro-5H-benzo[7]annulen-7-yl]-3-oxa-6-azabicyclo[3.1.1]heptane], the concentration for half-maximal inhibition (IC50) against Axl [1] and on Axl [2] was below 0.1 µM each time.
